What was measured:
Details in all cases: 72 h
Caco-2 [1] = experiment: cell viability relative to DMSO; higher = less toxic
Calu-3 [2] = experiment: as above
HepG2 [3] = experiment: as above
U2OS [4] = experiment: as above
Vero E6 [5] = experiment: as above
Caco-2 [6] = experiment: relative viability EC50 (midpoint between 100% and the lowest measured viability); higher = less toxic
Calu-3 [7] = experiment: as above
HepG2 [8] = experiment: as above
U2OS [9] = experiment: as above
Vero E6 [10] = experiment: as above
Caco-2 [11] = experiment: drug sensitivity score (DSS) for viability; higher = more toxic; extreme values may be limits of the assay
Calu-3 [12] = experiment: as above
HepG2 [13] = experiment: as above
U2OS [14] = experiment: as above
Vero E6 [15] = experiment: as above

SMILES | cell viability (Caco-2 [1]; 1 nM) | cell viability (Caco-2 [1]; 10 nM) | cell viability (Caco-2 [1]; 100 nM) | cell viability (Caco-2 [1]; 1000 nM) | cell viability (Caco-2 [1]; 10000 nM) | cell viability (Calu-3 [2]; 1 nM) | cell viability (Calu-3 [2]; 10 nM) | cell viability (Calu-3 [2]; 100 nM) | cell viability (Calu-3 [2]; 1000 nM) | cell viability (Calu-3 [2]; 10000 nM) | cell viability (HepG2 [3]; 1 nM) | cell viability (HepG2 [3]; 10 nM) | cell viability (HepG2 [3]; 100 nM) | cell viability (HepG2 [3]; 1000 nM) | cell viability (HepG2 [3]; 10000 nM) | cell viability (U2OS [4]; 1 nM) | cell viability (U2OS [4]; 10 nM) | cell viability (U2OS [4]; 100 nM) | cell viability (U2OS [4]; 1000 nM) | cell viability (U2OS [4]; 10000 nM) | cell viability (Vero E6 [5]; 1 nM) | cell viability (Vero E6 [5]; 10 nM) | cell viability (Vero E6 [5]; 100 nM) | cell viability (Vero E6 [5]; 1000 nM) | cell viability (Vero E6 [5]; 10000 nM) | relative viability EC50 (Caco-2 [6]) | relative viability EC50 (Calu-3 [7]) | relative viability EC50 (HepG2 [8]) | relative viability EC50 (U2OS [9]) | relative viability EC50 (Vero E6 [10]) | drug sensitivity score (Caco-2 [11]) | drug sensitivity score (Calu-3 [12]) | drug sensitivity score (HepG2 [13]) | drug sensitivity score (U2OS [14]) | drug sensitivity score (Vero E6 [15])
CC(C)CCNc1ncccc1C(=O)N1CCN(Cc2ccccc2)CC1 [NSI-189] | 96.8% | 97.8% | 100% | 92.9% | 106% | 96.3% | 108% | 92.5% | 92.7% | 115% | 108% | 91.5% | 102% | 91.2% | 103% | 97.5% | 98% | 95.5% | 97.8% | 99.3% | 96.5% | 95.7% | 94.9% | 93.3% | 104% | > 10 µM | > 10 µM | > 10 µM | > 10 µM | > 10 µM | 0 | 0 | 0 | 0 | 0
C=C(C)[C@@H]1CCC(C)=C[C@H]1c1c(OC)cc(C)cc1OC [O-1918] | 96.4% | 105% | 100% | 98.5% | 105% | 102% | 97.5% | 96% | 91.6% | 95.9% | 101% | 94.9% | 104% | 95.3% | 95.9% | 102% | 106% | 97% | 101% | 99% | 106% | 102% | 106% | 99.5% | 102% | > 10 µM | > 10 µM | > 10 µM | > 10 µM | > 10 µM | 0 | 0 | 0 | 0 | 0
Nc1ncnc2c1c(-c1cnc3[nH]ccc3c1)nn2C1CCCC1 [PP-121] | 105% | 100% | 90.5% | 43.6% | 13.1% | 98% | 100% | 85.7% | 33.4% | 15.3% | 121% | 106% | 104% | 58.3% | 11.4% | 104% | 98.5% | 97% | 48% | 1.6% | 99.5% | 104% | 102% | 73.7% | 9.3% | 0.596 µM | 0.355 µM | 1.05 µM | 0.933 µM | 1.43 µM | 12.1 | 14.2 | 10.2 | 11.6 | 8.9
CC(O)Cn1cnc2c1c(=O)n(C)c(=O)n2C (stereo not given) [Proxyphylline] | 102% | 93.9% | 99.9% | 101% | 94.6% | 92.5% | 100% | 106% | 99.3% | 104% | 106% | 102% | 98.7% | 111% | 103% | 98.9% | 92.8% | 95.1% | 93.6% | 104% | 90.1% | 99.1% | 87% | 90.8% | 108% | > 10 µM | > 10 µM | > 10 µM | > 10 µM | > 10 µM | 0 | 0 | 0 | 0 | 0
